Experimental data: US8614218B2, “Fused bicyclic pyrimidines” (Bayer Intellectual Property GmbH, priority 2007, dated 2013)

Tested on: A549 cells
Assay: Cellular proliferation/cytotoxicity assay (Alamar Blue), A549
Assay type: cell-based
Conditions: Homo sapiens, 72 h, Alamar Blue (Resazurin), read-out: Anti-proliterative/Cytotoxic activity (A549 cells)
Protocol: Cellular Proliferation/Cytotoxicity Assay:
The anti-proliferative activity of the compounds as described herein, is evaluated using the OvCAR3, HCT116 and A549 cell lines and the Alamar Blue (Resazurin) cell viability assay (O'Brien et al. Eur J Biochem 267, 5421-5426, 2000). Resazurin is reduced to the fluorescent resorufin by cellular dehydrogenase activity, correlating with viable, proliferating cells. Test compounds are dissolved as 10 mM solutions in DMSO and subsequently diluted. Cells like HCT116 or A549 cells were seeded into 96 well flat bottom plates at a density of 10000 cells/well (OvCAR3 cells), 1000 cells/well (HCT116 cells) or 2000 cells/well (A549 cells) in a volume of 200 μl/well. 24 hours after seeding, 1 μl each of the compound dilutions are added into each well of the 96 well plates. Each compound dilution is tested as at least as duplicates. Wells containing untreated control cells were filled with 200 μl DMEM (Dulbecco's Modified Eagle Medium) containing 0.5 vol % v:v DMSO. The cells are then incubated with the substances for 72 h at 37° C. in a humidified atmosphere containing 5 vol % CO2. To determine the viability of the cells, 20 μl of a Resazurin solution (90 mg/l) are added. After 4 h incubation at 37° C., the fluorescence is measured by extinction at λ=544 nm and an emission of λ=590 nm (Wallac Victor2; Perkin Elmer, USA). For the calculation of the cell viability, the emission value from untreated cells is set as 100% viability and the fluorescence intensity of treated cells are set in relation to the values of untreated cells. Viabilities are expressed as % values. The corresponding IC50 values of the compounds for cytotoxic activity are determined from the concentration-effect curves by means of non-linear regression. The analysis of the data is performed using a biostatistical program (GraphPad Prism, USA).
Representative IC50 values for anti-proliferative/cytotoxic potency determined in the aforementioned assay follow from the following table, in which the numbers of the compound correspond to the numbers of the examples.

Structure (SMILES)	IC50 [µM]
Cc1nc2nc(-c3ccc(CN4CCC(c5n[nH]c(-c6nccs6)n5)CC4)cc3)c(-c3ccccc3)cn2n1 [Example 43, 2-Methyl-6-phenyl-5-[4-({4-[5-(1,3-thiazol-2-yl)-1H-1,2,4-triazol-3-yl]piperidin-1-yl}methyl)phenyl][1,2,4]triazolo[1,5-a]pyrimidine]	< 10
Cc1cc2nc(-c3ccc(CN4CCC(c5n[nH]c(-c6ccccn6)n5)CC4)cc3)c(-c3ccccc3)cn2n1 [Example 44, 2-Methyl-6-phenyl-5-(4-{[4-(5-pyridin-2-yl-1H-1,2,4-triazol-3-yl)piperidin-1-yl]methyl}phenyl)pyrazolo[1,5-a]pyrimidine]	> 10
Cc1nc2nc(-c3ccc(CN4CCC(c5cc(-c6ccccn6)n[nH]5)CC4)cc3)c(-c3ccccc3)cn2n1 [Example 46, 2-Methyl-6-phenyl-5-(4-{[4-(3-pyridin-2-yl-1H-pyrazol-5-yl)piperidin-1-yl]methyl}phenyl)[1,2,4]triazolo[1,5-a]pyrimidine]	> 10
Cc1nc2nc(-c3ccc(CN4CCC(c5n[nH]c(-c6ccncc6)n5)CC4)cc3)c(-c3ccccc3)cn2n1 [Example 47, 2-Methyl-6-phenyl-5-(4-{[4-(5-pyridin-4-yl-1H-1,2,4-triazol-3-yl)piperidin-1-yl]methyl}phenyl)[1,2,4]triazolo[1,5-a]pyrimidine]	< 10
c1ccc(-c2cn3nc(C4CC4)cc3nc2-c2ccc(CN3CCC(c4n[nH]c(-c5ccccn5)n4)CC3)cc2)cc1 [Example 48, 2-Cyclopropyl-6-phenyl-5-(4-{[4-(5-pyridin-2-yl-1H-1,2,4-triazol-3-yl)piperidin-1-yl]methyl}phenyl)pyrazolo[1,5-a]pyrimidine]	< 10
c1ccc(-c2nc(C3CCN(Cc4ccc(-c5nc6nccn6cc5-c5ccsc5)cc4)CC3)n[nH]2)nc1 [Example 51, 7-(4-{[4-(5-Pyridin-2-yl-1H-1,2,4-triazol-3-yl)piperidin-1-yl]methyl}phenyl)-6-(3-thienyl)imidazo[1,2-a]pyrimidine]	< 10
Brc1nc2nc(-c3ccc(CN4CCC(c5n[nH]c(-c6ccccn6)n5)CC4)cc3)c(-c3ccccc3)cn2n1 [Example 52, 2-Bromo-6-phenyl-5-(4-{[4-(5-pyridin-2-yl-1H-1,2,4-triazol-3-yl)piperidin-1-yl]methyl}phenyl)[1,2,4]triazolo[1,5-a]pyrimidine]	< 10
C#Cc1nc2nc(-c3ccc(CN4CCC(c5n[nH]c(-c6ccccn6)n5)CC4)cc3)c(-c3ccccc3)cn2n1 [Example 53, 2-Ethynyl-6-phenyl-5-(4-{[4-(5-pyridin-2-yl-1H-1,2,4-triazol-3-yl)piperidin-1-yl]methyl}phenyl)[1,2,4]triazolo[1,5-a]pyrimidine]	< 10
Cc1nc2nc(-c3ccc(CN4CCC(c5n[nH]c(-c6ccccn6)n5)CC4)cc3)c(-c3ccsc3)cn2n1 [Example 54, 2-Methyl-5-(4-{[4-(5-pyridin-2-yl-1H-1,2,4-triazol-3-yl)piperidin-1-yl]methyl}phenyl)-6-(3-thienyl)[1,2,4]triazolo[1,5-a]pyrimidine]	< 10
CN(C)c1nc2nc(-c3ccc(CN4CCC(c5n[nH]c(-c6ccccn6)n5)CC4)cc3)c(-c3ccccc3)cn2n1 [Example 62, N,N-Dimethyl-6-phenyl-5-(4-{[4-(5-pyridin-2-yl-1H-1,2,4-triazol-3-yl)piperidin-1-yl]methyl}phenyl)[1,2,4]triazolo[1,5-a]pyrimidin-2-amine]	< 10
FC(F)(F)c1nc2nc(-c3ccc(CN4CCC(c5n[nH]c(-c6ccccn6)n5)CC4)cc3)c(-c3ccccc3)cn2n1 [Example 63, 6-Phenyl-5-(4-{[4-(5-pyridin-2-yl-1H-1,2,4-triazol-3-yl)piperidin-1-yl]methyl}phenyl)-2-(trifluoromethyl)[1,2,4]triazolo[1,5-a]pyrimidine]	> 10
Cc1nc2nc(-c3ccc(CN4CCC(c5n[nH]c(-c6ccccn6)n5)CC4)cc3)c(-c3ccccc3)c(N(C)C)n2n1 [Example 64, N,N,2-Trimethyl-6-phenyl-5-(4-{[4-(5-pyridin-2-yl-1H-1,2,4-triazol-3-yl)piperidin-1-yl]methyl}phenyl)[1,2,4]triazolo[1,5-a]pyrimidin-7-amine]	< 10
CNc1nc2nc(-c3ccc(CN4CCC(c5n[nH]c(-c6ccccn6)n5)CC4)cc3)c(-c3ccccc3)cn2n1 [Example 65, N-Methyl-6-phenyl-5-(4-{[4-(5-pyridin-2-yl-1H-1,2,4-triazol-3-yl)piperidin-1-yl]methyl}phenyl)[1,2,4]triazolo[1,5-a]pyrimidin-2-amine]	< 10
COc1nc2nc(-c3ccc(CN4CCC(c5n[nH]c(-c6ccccn6)n5)CC4)cc3)c(-c3ccccc3)cn2n1 [Example 66, 2-Methoxy-6-phenyl-5-(4-{[4-(5-pyridin-2-yl-1H-1,2,4-triazol-3-yl)piperidin-1-yl]methyl}phenyl)[1,2,4]triazolo[1,5-a]pyrimidine]	< 10
Nc1nc2nc(-c3ccc(CN4CCC(c5n[nH]c(-c6ccccn6)n5)CC4)cc3)c(-c3ccccc3)cn2n1 [Example 67, 6-Phenyl-5-(4-{[4-(5-pyridin-2-yl-1H-1,2,4-triazol-3-yl)piperidin-1-yl]methyl}phenyl)[1,2,4]triazolo[1,5-a]pyrimidin-2-amine]	< 10
c1ccc(-c2cn3ccnc3nc2-c2ccc(CN3CCC(c4nc(-c5ccc[nH]5)n[nH]4)CC3)cc2)cc1 [Example 68, 6-Phenyl-7-[4-({4-[3-(1H-pyrrol-2-yl)-1H-1,2,4-triazol-5-yl]piperidin-1-yl}methyl)phenyl]imidazo[1,2-a]pyrimidine]	< 10
c1ccc(-c2cn3nccc3nc2-c2ccc(CN3CCC(c4nc(-c5ncccn5)n[nH]4)CC3)cc2)cc1 [Example 69, 6-Phenyl-5-(4-{[4-(3-pyrimidin-2-yl-1H-1,2,4-triazol-5-yl)piperidin-1-yl]methyl}phenyl)pyrazolo[1,5-a]pyrimidine]	> 10
c1ccc(-c2cn3nccc3nc2-c2ccc(CN3CCC(c4nc(-c5nccs5)n[nH]4)CC3)cc2)cc1 [Example 70, 6-Phenyl-5-[4-({4-[3-(1,3-thiazol-2-yl)-1H-1,2,4-triazol-5-yl]piperidin-1-yl}methyl)phenyl]pyrazolo[1,5-a]pyrimidine]	> 10
c1ccc(-c2cn3nccc3nc2-c2ccc(CN3CCC(c4nc(-c5ccncc5)n[nH]4)CC3)cc2)cc1 [Example 71, 6-Phenyl-5-(4-{[4-(3-pyridin-4-yl-1H-1,2,4-triazol-5-yl)piperidin-1-yl]methyl}phenyl)pyrazolo[1,5-a]pyrimidine]	> 10
c1ccc(-c2cn3nccc3nc2-c2ccc(CN3CCC(c4nc(-c5ccc[nH]5)n[nH]4)CC3)cc2)cc1 [Example 72, 6-Phenyl-5-[4-({4-[3-(1H-pyrrol-2-yl)-1H-1,2,4-triazol-5-yl]piperidin-1-yl}methyl)phenyl]pyrazolo[1,5-a]pyrimidine]	< 10
Cc1nc2nc(-c3ccc(CN4CCC(c5nc(-c6ccc[nH]6)n[nH]5)CC4)cc3)c(-c3ccccc3)cn2n1 [Example 73, 2-Methyl-6-phenyl-5-[4-({4-[3-(1H-pyrrol-2-yl)-1H-1,2,4-triazol-5-yl]piperidin-1-yl}methyl)phenyl][1,2,4]triazolo[1,5-a]pyrimidine]	< 10
Cc1cccc(-c2n[nH]c(C3CCN(Cc4ccc(-c5nc6nc(C)nn6cc5-c5ccccc5)cc4)CC3)n2)n1 [Example 74, 2-Methyl-5-[4-({4-[3-(6-methylpyridin-2-yl)-1H-1,2,4-triazol-5-yl]piperidin-1-yl}methyl)phenyl]-6-phenyl[1,2,4]triazolo[1,5-a]pyrimidine]	< 10
Cc1cccc(-c2n[nH]c(C3CCN(Cc4ccc(-c5nc6ccnn6cc5-c5ccccc5)cc4)CC3)n2)n1 [Example 75, 5-[4-({4-[3-(6-Methylpyridin-2-yl)-1H-1,2,4-triazol-5-yl]piperidin-1-yl}methyl)phenyl]-6-phenylpyrazolo[1,5-a]pyrimidine]	< 10
c1ccc(-c2cn3nccc3nc2-c2ccc(CN3CCC(c4cc(-c5ccccn5)n[nH]4)CC3)cc2)cc1 [Example 76, 6-Phenyl-5-(4-{[4-(3-pyridin-2-yl-1H-pyrazol-5-yl)piperidin-1-yl]methyl}phenyl)pyrazolo[1,5-a]pyrimidine]	> 10
COC(=O)c1cc2nc(-c3ccc(CN4CCC(c5n[nH]c(-c6ccccn6)n5)CC4)cc3)c(-c3ccccc3)cn2n1 [Example 77, Methyl 6-phenyl-5-(4-{[4-(5-pyridin-2-yl-1H-1,2,4-triazol-3-yl)piperidin-1-yl]methyl}phenyl)pyrazolo[1,5-a]pyrimidine-2-carboxylate]	< 10
NC(=O)c1cc2nc(-c3ccc(CN4CCC(c5n[nH]c(-c6ccccn6)n5)CC4)cc3)c(-c3ccccc3)cn2n1 [Example 78, 6-Phenyl-5-(4-{[4-(5-pyridin-2-yl-1H-1,2,4-triazol-3-yl)piperidin-1-yl]methyl}phenyl)pyrazolo[1,5-a]pyrimidine-2-carboxamide]	> 10
